Assays:
[1] = pKa measurement of the cationic lipid (TNS fluorescence vs pH); format: physicochemical; conditions: probe TNS (fluorescent probe), Table 4; pKa of the cationic lipid of formula (I)
Procedure: Unless indicated otherwise, all pKa's referred to herein were measured at standard temperature and pressure. Also, unless otherwise indicated, all references to pKa are references to pKa measured using the following technique. 2 mM solution of lipid in ethanol was prepared by weighing the lipid and then dissolving it in ethanol. 0.3 mM solution of fluorescent probe TNS in ethanol:methanol 9:1 was prepared by first making 3 mM solution of TNS in methanol and then diluting to 0.3 mM with ethanol. An aqueous buffer containing 200 mM sodium phosphate dibasic and 100 mM citric acid was prepared. […] Using the Hamilton Microlab Star high throughput liquid handler and Hamilton run control software Software, 7.5 uL of probe/lipid mix were added to 242.5 uL of buffer in a 1 mL 96 well plate (model NUNC 260252, […] Nunc International). This was done with all twelve buffers. After mixing in 1 mL 96 well plate, 100 uL of each probe/lipid/buffer mixture was transferred to a 250 uL black with clear bottom 96 well plate (model COSTAR 3904, Corning). The fluorescence measurements are carried out on the SpectraMax M5 spectrophotometer using software SoftMax pro 5.2 and following parameters: After the measurement, the background fluorescence value of an empty well on the 96 well plate was subtracted from each probe/lipid/buffer mixture. The fluorescence intensity values were then normalized to the value at lowest pH. The normalized fluorescence intensity vs. pH chart was then plotted in the Microsoft Excel software. The twelve points were connected with a smooth line. The point on the line at which the normalized fluorescence intensity was equal to 0.5 was found. […] The pKa determined using this method is precise to about 0.1 pKa units.

[2] = Polydispersity index (PDI) of the lipid nanoparticle (dynamic light scattering); format: physicochemical; conditions: Table 4; FVII siRNA LNP; Chol/DSPC/stealth lipid S010, 45/44/9/2
From the text: The lipid nanoparticles (LNPs) were formed by mixing equal volumes of lipids dissolved in alcohol with siRNA dissolved in a citrate buffer by an impinging jet process. […] The siRNA to total lipid ratio is approximately 0.05 (wt/wt). Where a LNP formulation contains four lipid components, the molar ratios correspond to the type of lipid as it appears in the first four columns of the table, in the order that they appear. The ratio of the lipids ranges from 20 to 70 mole percent for the cationic lipid with a target of 40-60, the mole percent of helper lipid ranges from 20 to 70 with a target of 30 to 50, the mole percent of neutral lipid ranges from 0-30, the mole percent of PEG lipid has a range from 1 to 6 with a target of 2 to 5. The concentration of siRNA solution ranges from 0.7 to 1.0 mg/mL with a target of 0.8 to 0.9 mg/mL in a sodium citrate: sodium chloride buffer pH 4-6, with a target of 4.5-5.5. The LNPs are formed by mixing equal volumes of lipid solution in ethanol with siRNA dissolved in a citrate buffer by an impinging jet process through a mixing device with ID ranging from 0.25 to 2.0 mm at a flow rate from 10 to 640 mL/min. The mixed LNP solution is held at room temperature for 0-24 hrs prior to a dilution step. […] The final product is sterile filtered and stored at 4° C. Unless indicated otherwise, all PDIs referred to herein are the PDI of the fully formed nanoparticle, as measured by dynamic light scattering on a Malvern Zetasizer. The nanoparticle sample was diluted in phosphate buffered saline (PBS) so that the count rate was approximately 200-400 kcts. The data is presented in Tables 4 and 5 as a weighted average of the intensity measure.

[3] = system: respiratory syncytial virus F protein; experiment: Immunization studies: anti-RSV-F titers after liposome-delivered vA317 self-replicating RNA; format: in vivo; conditions: BALB/c mice, liposomes with 0.1 μg vA317 replicon (naked control 1 μg); for anti-RSV-F titer 2wp1 pool 1 / anti-RSV-F titer 2wp1 pool 2: 2 weeks after first dose; for anti-RSV-F titer 2wp2 pool 1 / anti-RSV-F titer 2wp2 pool 2: 2 weeks after second dose; for anti-RSV-F titer 4wp2 pool 1 / anti-RSV-F titer 4wp2 pool 2: 4 weeks after second dose
Procedure: BALB/c were immunized with liposomes comprising DSPC, cholesterol, and various lipids of the invention (or, for comparison, the cationic lipid 1,2-dilinoleyloxy-N,N-dimethyl-3-aminopropane or ‘DLinDMA’). The liposomes encapsulated 0.1 μg of “vA317” self-replicating RNA replicon which encodes respiratory syncytial virus F protein (see WO2012/031043). […] Doses were given either on days 0 & 21 or days 0 & 42. Immune responses were assessed 2 weeks after each dose (2wp1, 2wp2), and in some cases also at 4 weeks after the second dose (4wp2). Four series of experiments were performed, each with its own naked control.

## CCCCC/C=C\C/C=C\CCCCCCCC(=O)OCCOCCOc1cc(CN(CC)CC)cc(OCCOCCOC(=O)CCCCCCC/C=C\C/C=C\CCCCC)c1 [Example 58]
[1]
  pKa: 5.9

## CCCCCCCCOC(=O)CCCCCCCC(=O)OCCCOc1cc(CN(C)C)cc(OCCCOC(=O)CCCCCCCC(=O)OCCCCCCCC)c1 [Example 98]
[1]
  pKa: 5.94
[2]
  PDI: 0.096

## CCCCCCCC(=O)OCC(COC(=O)CCCCCCC)OC(=O)CCC(=O)OCc1cc(COC(=O)CCC(=O)OC(COC(=O)CCCCCCC)COC(=O)CCCCCCC)cc(CN(C)C)c1 [Example 107]
[1]
  pKa: 6.11
[2]
  PDI: 0.071

## CCCCC/C=C\C/C=C\CCCCCCCC(=O)OCCCCCCOc1cc(CN(C)C)cc(OCCCCCCOC(=O)CCCCCCC/C=C\C/C=C\CCCCC)c1 [Example 45]
[1]
  pKa: 5.57

## CCCCC/C=C\C/C=C\CCCCCCCCOc1cc(COC(=O)CCCN(C)C)cc(OCCCCCCCC/C=C\C/C=C\CCCCC)c1 [Example 13]
[3]; Course A = days 0 & 21
  anti-RSV-F titer 2wp1 pool 1: 495
  anti-RSV-F titer 2wp1 pool 2: 620
  anti-RSV-F titer 2wp2 pool 1: 7157
  anti-RSV-F titer 2wp2 pool 2: 12316

## CCCCCCCCCCCC(=O)OCCCCCCOc1cc(CN(C)C)cc(OCCCCCCOC(=O)CCCCCCCCCCC)c1 [Example 59]
[1]
  pKa: 6.09

## CCCCCCCCC(CCCCCCCC)CC(=O)OCc1cc(COC(=O)CCCCCCCOC(=O)CCCCCCC)cc(CN(C)C)c1 [Example 101]
[1]
  pKa: 6.32

## CCCCC/C=C\C/C=C\CCCCCCCC(=O)OCCCCOc1cc(CN(C)C)cc(OCCCCOC(=O)CC(CCCCCCCC)CCCCCCCC)c1 [Example 109]
[1]
  pKa: 5.98
[2]
  PDI: 0.09

## CCCCC/C=C\C/C=C\CCCCCCCC(=O)OCc1cc(COC(=O)CCCCCCC/C=C\C/C=C\CCCCC)cc(COC(=O)CCN(C)C)c1 [Example 29]
[3]; Course A = days 0 & 21
  anti-RSV-F titer 2wp1 pool 1: 2101
  anti-RSV-F titer 2wp1 pool 2: 3584
  anti-RSV-F titer 2wp2 pool 1: 12529
  anti-RSV-F titer 2wp2 pool 2: 18669
  anti-RSV-F titer 4wp2 pool 1: 23930
  anti-RSV-F titer 4wp2 pool 2: 37278

## CCCCC/C=C\C/C=C\CCCCCCCCNC(=O)c1cc(COC(=O)CCCN(C)C)cc(C(=O)NCCCCCCCC/C=C\C/C=C\CCCCC)c1 [Example 66]
[3]; Course A = days 0 & 21
  anti-RSV-F titer 2wp1 pool 1: 75
  anti-RSV-F titer 2wp1 pool 2: 75
  anti-RSV-F titer 2wp2 pool 1: 75
  anti-RSV-F titer 2wp2 pool 2: 75
  anti-RSV-F titer 4wp2 pool 1: 75
  anti-RSV-F titer 4wp2 pool 2: 75

## CCCCCCCCCCCCOC(=O)CCCCCOc1cc(CN(C)C)cc(OCCCCCC(=O)OCCCCCCCCCCCC)c1 [Example 90]
[1]
  pKa: 5.81

## CCCCCCCC(=O)OCCCCCC(=O)OCc1cc(COC(=O)CCCCCOC(=O)CCCCCCC)cc(CN(C)C)c1 [Example 85]
[1]
  pKa: 5.72

## CCCCCCCC/C=C\CCCCCCCCOc1cc(OCCCCCCCC/C=C\CCCCCCCC)cc(C2OCC(COC(=O)CN(C)C)O2)c1 (centres unmarked) [Example 12]
[3]; Course B = days 0 & 42
  anti-RSV-F titer 2wp1 pool 1: 88
  anti-RSV-F titer 2wp1 pool 2: 128
  anti-RSV-F titer 2wp2 pool 1: 4550
  anti-RSV-F titer 2wp2 pool 2: 4828
  anti-RSV-F titer 4wp2 pool 1: 4787
  anti-RSV-F titer 4wp2 pool 2: 3972

## CCCCCCCCCOC(=O)CCCCCCC(=O)OCc1cc(COC(=O)CCCCCCC(=O)OCCCCCCCCC)cc(CN(C)C)c1 [Example 79]
[1]
  pKa: 6.48
